From the NIST ThermoML archive (doi:10.1021/je900442b)

How the values were obtained:
[1] = 101 kPa, Liquid
[2] = xn = mol fraction of the nth substance listed; settings: 101 kPa, Liquid

CCCCOC(C)=O [butyl ethanoate]
[1]
Settings | mass density [kg/m3] | speed of sound [m/s]
298.15 K | 876.18 | 1190
303.15 K | 871.27 | 1173
308.15 K | 865.41 | 1150
313.15 K | 860.46 | 1131

CCCCOC(C)=O [butyl ethanoate] + CO
[2]
Settings | mass density, 298.15 K [kg/m3] | mass density, 303.15 K [kg/m3] | mass density, 308.15 K [kg/m3] | mass density, 313.15 K [kg/m3] | speed of sound, 298.15 K [m/s] | speed of sound, 303.15 K [m/s] | speed of sound, 308.15 K [m/s] | speed of sound, 313.15 K [m/s]
x1 = 0.1004 | 810.58 | 805.75 | 800.39 | 795.84 | 1130 | 1112 | 1092 | 1076
x1 = 0.2329 | 831.49 | 826.61 | 821.09 | 816.38 | 1151 | 1132 | 1111 | 1093
x1 = 0.2996 | 839.18 | 834.29 | 828.66 | 823.89 | 1160 | 1140 | 1118 | 1100
x1 = 0.4008 | 848.46 | 843.52 | 837.84 | 833.02 | 1171 | 1151 | 1128 | 1109
x1 = 0.498 | 855.46 | 850.52 | 844.77 | 839.91 | 1179 | 1159 | 1136 | 1116
x1 = 0.5988 | 861.3 | 856.34 | 850.55 | 845.66 | 1185 | 1165 | 1141 | 1122
x1 = 0.6994 | 866.05 | 861.1 | 855.28 | 850.36 | 1189 | 1170 | 1145 | 1126
x1 = 0.7912 | 869.71 | 864.74 | 858.91 | 853.98 | 1191 | 1172 | 1148 | 1128
x1 = 0.8992 | 873.3 | 868.38 | 862.52 | 857.58 | 1191 | 1173 | 1149 | 1130
x1 = 1 | 876.18 | 871.27 | 865.41 | 860.46 | 1190 | 1173 | 1150 | 1131

CO [methanol]
[1]
Settings | mass density [kg/m3] | speed of sound [m/s]
298.15 K | 786.38 | 1109
303.15 K | 781.65 | 1092
308.15 K | 776.52 | 1074
313.15 K | 772.15 | 1060

CO [methanol] + CCCCOC(C)=O
[2], x2 = 0
Settings | mass density [kg/m3] | speed of sound [m/s]
298.15 K | 786.38 | 1109
303.15 K | 781.65 | 1092
308.15 K | 776.52 | 1074
313.15 K | 772.15 | 1060
